Like-named read-outs stand apart in the source and are kept apart here.
Experiment: Phase I dose-escalating study, plasma pharmacokinetics in patients with solid tumor
Assay type: in vivo, human
Settings: for concentration at 6 h / concentration at 8 h / concentration at 10 h / concentration at 0 h / concentration at 1 h / concentration at 2 h / concentration at 3 h / concentration at 4 h / concentration at 20 h / concentration at 24 h / concentration at 48 h / concentration at 72 h / concentration at 96 h / concentration at 144 h / AUC(0-t) / Cmax / Tmax / half-life: human, plasma; for concentration at 6 h: nominal time 6 h; for concentration at 8 h: nominal time 8 h; for concentration at 10 h: nominal time 10 h; for concentration at 0 h: nominal time 0 h; for concentration at 1 h: nominal time 1 h; for concentration at 2 h: nominal time 2 h; for concentration at 3 h: nominal time 3 h; for concentration at 4 h: nominal time 4 h; for concentration at 20 h: nominal time 20 h; for concentration at 48 h: nominal time 48 h; for concentration at 72 h: nominal time 72 h; for concentration at 96 h: nominal time 96 h; for concentration at 144 h: nominal time 144 h; for AUC(0-t): read-out: AUC(0-24), mean (% CV); for Cmax: read-out: Cmax, mean (% CV); for Tmax: read-out: tmax, mean (% CV); for half-life: read-out: t½, mean (% CV) (converted)
Experimental: Cmax values, or maximum total plasma concentrations, of a compound of formula 1 can be measured according to techniques well known to those skilled in the art. For example, after a compound of formula 1 has been administered to a mammal, blood samples can be taken at fixed time points over a period of time (e.g. 24 hours) and the serum or plasma concentration of compound of formula 1 can be measured using standard analytical techniques known in the art. In vivo determinations Cmax can then be made by plotting the serum or plasma concentration of compound of formula 1 along the ordinate (y-axis) against time along the abscissa (x-axis).
The maleate salt of compound 1 was administered to human patients with solid tumor malignancies not amenable to conventional therapies in a Phase I dose-escalating multicenter study. The types of tumor malignancies included colorectal carcinoma, renal cell carcinoma, esophageal carcinoma, thymus carcinoma, mastocytosis, lung cancer and multiple endocrine neoplasia type II. Patients were treated in cohorts of 6 with escalating QD (once per day) doses of the maleate salt of compound 1 under fasting conditions. Each study cycle of 5 weeks consisted of 4 weeks of treatment followed by 1 week of rest (4/1 schedule), or continuous dosing without any rest period.
Full pharmacokinetic profiles were collected on Cycle 1 Day 1 (C1D1), Cycle 1 Day 28 (C1D28), and Cycle 2 Day 28 (C2D28). Preliminary pharmacokinetic parameters for the first 44 patients, i.e. the first 7 dosing groups, were estimated using nominal collection times and quality-controlled, non-quality assured bioanalytical data. The dosage amounts in Table 1A and Table 1B are free base equivalent amounts.

[1] = 25 mg QD, 25 mg QD 4/1 (n = 6), read-out: Mean plasma concentration following the last dose on cycle 1 day 28
[2] = 25 mg, 25 mg QD 4/1 (n = 6), read-out: Mean plasma concentration following the last dose on cycle 1 day 28
[3] = 25 mg, 25 mg QD (4/1), C1D1 (n = 6)
[4] = 25 mg, 25 mg QD (4/1), C1D28 (n = 6)
[5] = 25 mg, 25 mg QD (4/1), C2D28 (n = 5)
[6] = 50 mg QD, 50 mg QD 4/1 (n = 5), read-out: Mean plasma concentration following the last dose on cycle 1 day 28
[7] = 50 mg, 50 mg QD 4/1 (n = 5), read-out: Mean plasma concentration following the last dose on cycle 1 day 28
[8] = 50 mg, 50 mg QD (4/1), C1D1 (n = 6)
[9] = 50 mg, 50 mg QD (4/1), C1D28 (n = 5)

Structure (SMILES): Cc1[nH]c(/C=C2\C(=O)Nc3ccc(F)cc32)c(C)c1C(=O)NC[C@H](O)CN1CCOCC1 [compound 1, 5-[(Z)-(5-fluoro-2-oxo-1,2-dihydro-3H-indol-3-ylidene)methyl]-N-[(2S)-2-hydroxy-3-morpholin-4-ylpropyl]-2,4-dimethyl-1H-pyrrole-3-carboxamide]
- drug accumulation in plasma from cycle 1 to cycle 2 (100 mg QD continuous, Cmax and AUC0-24 of C1D28 vs C2D28): no drug accumulation
- time of the longer elimination phase after dosing (4/1 schedule, after the last dose on Day 28): about 72 hours
- change in the overall plasma elimination profile (across the 25- to 250-mg groups): no change
- time of absorption after dosing (administered in the fasted state): ≤ 6 h
- dose linearity of pharmacokinetics (first 44 patients, 25 to 250 mg): generally dose-linear pharmacokinetics
- concentration at 6 h [1]: 50.3 ng/mL
- concentration at 8 h [1]: 41.3 ng/mL
- concentration at 10 h [1]: 36.8 ng/mL
- concentration at 0 h [2]: 22.2 ng/mL
- concentration at 1 h [2]: 50.1 ng/mL
- concentration at 2 h [2]: 46.7 ng/mL
- concentration at 3 h [2]: 47 ng/mL
- concentration at 4 h [2]: 58.3 ng/mL
- concentration at 20 h [2]: 19.5 ng/mL
- concentration at 24 h (25 mg, 25 mg QD 4/1 (n = 6), nominal time 24 h, read-out: Mean plasma concentration following the last dose on cycle 1 day 28): 21.1 ng/mL
- concentration at 48 h [2]: 6.24 ng/mL
- concentration at 72 h [2]: 2.61 ng/mL
- concentration at 96 h [2]: 1.58 ng/mL
- concentration at 144 h [2]: 0.63 ng/mL
- AUC(0-t) [3]: 547 ng·h/mL
- concentration at 24 h (25 mg, 25 mg QD (4/1), C1D1 (n = 6), read-out: C(trough, 24 h), mean (% CV)): 13.8 ng/mL
- Cmax [3]: 55.1 ng/mL
- Tmax [3]: 2.8 h
- half-life [3]: 11.9 h
- AUC(0-t) [4]: 809 ng·h/mL
- concentration at 24 h (25 mg, 25 mg QD (4/1), C1D28 (n = 6), read-out: C(trough, 24 h), mean (% CV)): 21.1 ng/mL
- Cmax [4]: 72.9 ng/mL
- Tmax [4]: 2.7 h
- half-life [4]: 24.8 h
- Cmax [5]: 61.8 ng/mL
- Tmax [5]: 3.2 h
- half-life [5]: 17.7 h
- concentration at 3 h [6]: 85.6 ng/mL
- concentration at 6 h [6]: 71.3 ng/mL
- concentration at 8 h [6]: 68.6 ng/mL
- concentration at 10 h [6]: 59.4 ng/mL
- concentration at 0 h [7]: 37.2 ng/mL
- concentration at 1 h [7]: 72.3 ng/mL
- concentration at 2 h [7]: 84.5 ng/mL
- concentration at 4 h [7]: 81.1 ng/mL
- concentration at 20 h [7]: 30.5 ng/mL
- concentration at 24 h (50 mg, 50 mg QD 4/1 (n = 5), nominal time 24 h, read-out: Mean plasma concentration following the last dose on cycle 1 day 28): 24.3 ng/mL
- concentration at 48 h [7]: 25.4 ng/mL
- concentration at 72 h [7]: 7.89 ng/mL
- concentration at 96 h [7]: 17 ng/mL
- concentration at 144 h [7]: 3.27 ng/mL
- AUC(0-t) [8]: 888 ng·h/mL
- concentration at 24 h (50 mg, 50 mg QD (4/1), C1D1 (n = 6), read-out: C(trough, 24 h), mean (% CV)): 20.8 ng/mL
- Cmax [8]: 84.6 ng/mL
- Tmax [8]: 2.8 h
- half-life [8]: 10.8 h
- AUC(0-t) [9]: 1350 ng·h/mL
- concentration at 24 h (50 mg, 50 mg QD (4/1), C1D28 (n = 5), read-out: C(trough, 24 h), mean (% CV)): 50.8 ng/mL
- Cmax [9]: 126 ng/mL
- Tmax [9]: 6.6 h
- half-life [9]: 24 h
- AUC(0-t) (50 mg, 50 mg QD (4/1), C2D28 (n = 3)): 1790 ng·h/mL
